In patent US20230263822A1, “MODULATION OF FACTOR 11 EXPRESSION” (Ionis Pharmaceuticals, Inc., priority 2008, published 2023):
Read-outs that look alike come from different tables or passages of the source. e = 2'-O-(2-methoxyethyl) (MOE); d = 2'-deoxy (DNA)

Assays:
[1] = mouse, in vivo, sc, 50 mg/kg
[2] = rat, in vivo, sc, 50 mg/kg
[3] = rat, in vivo, sc, 50 mg/kg; remark: listed apart in the source
[4] = mouse, in vivo, sc, 50 mg/kg; remark: listed apart in the source
[5] = mouse, in vivo, sc, 50 mg/kg; remark: listed apart in the source
[6] = rat, in vivo, sc, 50 mg/kg; remark: listed apart in the source

Row | Substance | ALT [1] | AST [1] | Bilirubin [1] | Cholesterol [1] | HCT [2] | Lymphocyte [2] | Neutrophil [2] | Platelets [2] | RBC [2] | WBC [2] | hemoglobin [2] | HCT [4] | Lymphocyte [4] | Neutrophil [4] | Platelets [4] | RBC [4] | WBC [4] | hemoglobin [4] | monocytes [4] | BUN [5] | further results
1 | ISIS 412223: 5-10-5 MOE gapmer ACAGTTTCTGGCAGGCCTCG (sugars from the 5' end e5 d10 e5, backbone and methylation of C not given here) | 60 IU/L | 125 IU/L | 0.20 mg/dL | 117 mg/dL | 41% | 16990 | 1826 | 567 | 7.2 10^6/μL | 20 10^3/μL | 13.1 g/dL | 48% | 4599 cells/μL | 1756 cells/μL | 862 10^3/μL | 9 10^6/μL | 7 10^3/μL | 15 g/dL | 200 cells/μL | 28 mg/dL | BUN [3]: 24 mg/dL; Creatinine [3]: 46 mg/dL; Total urine protein [3]: 224 mg/dL; Urine protein/creatinine ratio [3]: 4.6; ALT [6]: 85 IU/L; AST [6]: 180 IU/L; Albumin [6]: 5; Bilirubin [6]: 0.14 mg/dL
2 | ISIS 412224: 5-10-5 MOE gapmer GCATTGGTGCACAGTTTCTG (sugars from the 5' end e5 d10 e5, backbone and methylation of C not given here) | 214 IU/L | 183 IU/L | 0.19 mg/dL | 114 mg/dL | 42% | 16807 | 1865 | 685 | 7.4 10^6/μL | 20 10^3/μL | 13.4 g/dL | 50% | 6284 cells/μL | 2107 cells/μL | 647 10^3/μL | 10 10^6/μL | 9 10^3/μL | 15 g/dL | 195 cells/μL | 29 mg/dL | BUN [3]: 24 mg/dL; Creatinine [3]: 44 mg/dL; Total urine protein [3]: 171 mg/dL; Urine protein/creatinine ratio [3]: 3.8; ALT [6]: 84 IU/L; AST [6]: 132 IU/L; Albumin [6]: 4; Bilirubin [6]: 0.12 mg/dL
3 | ISIS 412225: 5-10-5 MOE gapmer GCAGCGGACGGCATTGGTGC (sugars from the 5' end e5 d10 e5, backbone and methylation of C not given here) | 40 IU/L | 69 IU/L | 0.23 mg/dL | 128 mg/dL | 42% | 13204 | 1499 | 673 | 7.4 10^6/μL | 15 10^3/μL | 13.4 g/dL | 50% | 4969 cells/μL | 1547 cells/μL | 574 10^3/μL | 9 10^6/μL | 7 10^3/μL | 15 g/dL | 293 cells/μL | 23 mg/dL | BUN [3]: 23 mg/dL; Creatinine [3]: 58 mg/dL; Total urine protein [3]: 209 mg/dL; Urine protein/creatinine ratio [3]: 4.0; ALT [6]: 48 IU/L; AST [6]: 108 IU/L; Albumin [6]: 5; Bilirubin [6]: 0.15 mg/dL
4 | ISIS 413481: 5-10-5 MOE gapmer GGTGCACAGTTTCTGGCAGG (sugars from the 5' end e5 d10 e5, backbone and methylation of C not given here) | 85 IU/L | 143 IU/L | 0.18 mg/dL | 153 mg/dL | 43% | 12707 | 1046 | 552 | 7.5 10^6/μL | 14 10^3/μL | 14.2 g/dL | 45% | 4329 cells/μL | 1904 cells/μL | 841 10^3/μL | 9 10^6/μL | 7 10^3/μL | 13 g/dL | 204 cells/μL | 23 mg/dL | BUN [3]: 26 mg/dL; Creatinine [3]: 45 mg/dL; Total urine protein [3]: 148 mg/dL; Urine protein/creatinine ratio [3]: 3.6; ALT [6]: 54 IU/L; AST [6]: 80 IU/L; Albumin [6]: 4; Bilirubin [6]: 0.22 mg/dL
5 | ISIS 413482: 5-10-5 MOE gapmer GGACGGCATTGGTGCACAGT (sugars from the 5' end e5 d10 e5, backbone and methylation of C not given here) | 54 IU/L | 77 IU/L | 0.24 mg/dL | 138 mg/dL | 40% | 11430 | 1125 | 641 | 7.1 10^6/μL | 13 10^3/μL | 13.2 g/dL | 50% | 5584 cells/μL | 1958 cells/μL | 818 10^3/μL | 10 10^6/μL | 8 10^3/μL | 15 g/dL | 275 cells/μL | 27 mg/dL | BUN [3]: 23 mg/dL; Creatinine [3]: 34 mg/dL; Total urine protein [3]: 157 mg/dL; Urine protein/creatinine ratio [3]: 4.8; ALT [6]: 59 IU/L; AST [6]: 157 IU/L; Albumin [6]: 4; Bilirubin [6]: 0.14 mg/dL
6 | ISIS 416848: MOE gapmer, nucleobases 1275 to 1318 of SEQ ID NO: 1 (Table 8) (antisense CACAGTTTCTGGCAGGCCTC; MOE gapmer, wing and gap sizes not given here) | 153 IU/L | 153 IU/L | 0.19 mg/dL | 151 mg/dL | 35% | 14316 | 1874 | 384 | 6.0 10^6/μL | 17 10^3/μL | 11.1 g/dL | 47% | 5268 cells/μL | 1264 cells/μL | 953 10^3/μL | 9 10^6/μL | 7 10^3/μL | 14 g/dL | 180 cells/μL | 23 mg/dL | BUN [3]: 26 mg/dL; Creatinine [3]: 64 mg/dL; Total urine protein [3]: 231 mg/dL; Urine protein/creatinine ratio [3]: 3.9; ALT [6]: 89 IU/L; AST [6]: 236 IU/L; Albumin [6]: 3; Bilirubin [6]: 0.14 mg/dL
7 | ISIS 416855: MOE gapmer, nucleobases 1275 to 1318 of SEQ ID NO: 1 (Table 8) (antisense CATTGGTGCACAGTTTCTGG; MOE gapmer, wing and gap sizes not given here) | 786 IU/L | 580 IU/L | 0.25 mg/dL | 162 mg/dL | – | – | – | – | – | – | – | 50% | 4236 cells/μL | 1443 cells/μL | 784 10^3/μL | 9 10^6/μL | 6 10^3/μL | 14 g/dL | 263 cells/μL | 23 mg/dL | –
8 | ISIS 416857: MOE gapmer, nucleobases 1275 to 1318 of SEQ ID NO: 1 (Table 8) (antisense CGGCATTGGTGCACAGTTTC; MOE gapmer, wing and gap sizes not given here) | 370 IU/L | 269 IU/L | 0.22 mg/dL | 94 mg/dL | – | – | – | – | – | – | – | 53% | 3697 cells/μL | 1334 cells/μL | 603 10^3/μL | 10 10^6/μL | 6 10^3/μL | 15 g/dL | 215 cells/μL | 17 mg/dL | –
9 | ISIS 416862: MOE gapmer, nucleobases 1275 to 1318 of SEQ ID NO: 1 (Table 8) (antisense AGCGGACGGCATTGGTGCAC; MOE gapmer, wing and gap sizes not given here) | 225 IU/L | 172 IU/L | 0.36 mg/dL | 103 mg/dL | – | – | – | – | – | – | – | 49% | 4445 cells/μL | 1118 cells/μL | 1007 10^3/μL | 9 10^6/μL | 6 10^3/μL | 14 g/dL | 174 cells/μL | 21 mg/dL | –
10 | ISIS 416865: MOE gapmer, nucleobases 1275 to 1318 of SEQ ID NO: 1 (Table 8) (antisense TGGCAGCGGACGGCATTGGT; MOE gapmer, wing and gap sizes not given here) | 383 IU/L | 262 IU/L | 0.27 mg/dL | 95 mg/dL | – | – | – | – | – | – | – | 50% | 5148 cells/μL | 1227 cells/μL | 872 10^3/μL | 9 10^6/μL | 7 10^3/μL | 14 g/dL | 315 cells/μL | 20 mg/dL | –
